Data as given in PubChem BioAssay (NCI).
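Each compound was tested at five concentrations against cells in 96-well plates for 48 hours. At the GI50, growth is halved. TGI: concentration producing complete growth inhibition.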

How the values were obtained:
Assay in all cases: NCI tumour cell line growth inhibition, 48 h
HT29 colon = system: HT29 colon
COLO 205 colon = system: COLO 205 colon
MCF7 breast = system: MCF7 breast
HCT-15 colon = system: HCT-15 colon
SN12C renal = system: SN12C renal
NCI-H23 lung = system: NCI-H23 lung
TK-10 renal = system: TK-10 renal
K-562 leukemia = system: K-562 leukemia
UACC-257 melanoma = system: UACC-257 melanoma
U251 CNS = system: U251 CNS

| Structure (SMILES) | GI50 (HT29 colon) | TGI (HT29 colon) | GI50 (COLO 205 colon) | TGI (COLO 205 colon) | GI50 (MCF7 breast) | TGI (MCF7 breast) | GI50 (HCT-15 colon) | TGI (HCT-15 colon) | GI50 (SN12C renal) | TGI (SN12C renal) | GI50 (NCI-H23 lung) | TGI (NCI-H23 lung) | GI50 (TK-10 renal) | TGI (TK-10 renal) | GI50 (K-562 leukemia) | TGI (K-562 leukemia) | GI50 (UACC-257 melanoma) | TGI (UACC-257 melanoma) | GI50 (U251 CNS) | TGI (U251 CNS) |
| --- | --- | --- | --- | --- | --- | --- | --- | --- | --- | --- | --- | --- | --- | --- | --- | --- | --- | --- | --- | --- |
| Oc1ccc(C(c2ccc(O)cc2)c2ccc(Br)cn2)cc1 | 5.99 µM | 98.7 µM | 0.308 µM | 3.44 µM | 0.264 µM | 0.732 µM | 0.425 µM | 16.9 µM | 0.325 µM | 3.82 µM | 0.267 µM | 0.772 µM | 0.258 µM | 1.13 µM | 14.4 µM | > 100 µM | 17.4 µM | 61.5 µM | 18.5 µM | 50.9 µM |
| O=[N+]([O-])c1ccc(N2CCOCC2)c2c1no[n+]2[O-] | 1.04 µM | 2.8 µM | 0.906 µM | 2.24 µM | 0.543 µM | 2.96 µM | 1.32 µM | 2.89 µM | 1.2 µM | 2.85 µM | 1.08 µM | 4.83 µM | 3.85 µM | 16.7 µM | 1.65 µM | 3.57 µM | 2.76 µM | 10.7 µM | 0.984 µM | 2.32 µM |
| O=C(/C=C/c1cccc(O)c1)c1cccc(-n2cc(-c3ccccc3)[nH]c2=O)c1 | 2.58 µM | > 20.6 µM | 1.96 µM | 3.85 µM | 2.29 µM | 6.68 µM | 2.94 µM | 10.3 µM | 3.01 µM | 11.3 µM | 3.64 µM | 14.4 µM | 2.43 µM | 6.89 µM | 2.52 µM | > 24.8 µM | 8.89 µM | 21.8 µM | 1.56 µM | 3.05 µM |
| N#CCCN1C/C(=C/c2ccc(Cl)cc2)C(=O)/C(=C/c2ccc(Cl)cc2)C1 | 0.238 µM | 0.574 µM | 1.25 µM | 2.64 µM | 0.42 µM | 2.81 µM | 0.412 µM | 1.78 µM | 1.44 µM | 3.39 µM | 2.18 µM | 5.61 µM | 2.08 µM | 4.86 µM | 0.378 µM | > 100 µM | 2.05 µM | 4.38 µM | 0.417 µM | 1.48 µM |
| Cc1cc(N(CCCNc2ccnc3cc(Cl)ccc23)Cc2ccco2)nc(N2CCN(C)CC2)n1 | 2.73 µM | 11 µM | 1.89 µM | 3.94 µM | 3.01 µM | 13.9 µM | 2.07 µM | 10.5 µM | 4.24 µM | 17 µM | 5.52 µM | 22.1 µM | 2.08 µM | 4.82 µM | 2.07 µM | 10.4 µM | 1.97 µM | 3.8 µM | 2.67 µM | 6.92 µM |
| CC(C)(O)CNc1nc(Nc2ccnc(C(F)(F)F)c2)nc(-c2cccc(C(F)(F)F)n2)n1 | 17.1 µM | 41.2 µM | 18.4 µM | 38.7 µM | 18.2 µM | 42.5 µM | 19.7 µM | 79.8 µM | 19.1 µM | 54.4 µM | 18.1 µM | 42.8 µM | 26.6 µM | 82.4 µM | 29.4 µM | > 100 µM | 21.7 µM | 43.6 µM | 25.9 µM | 78.2 µM |
